Values after ≈ are worked out from the molar mass of the structure shown. Read-outs that look alike come from different tables or passages of the source.
Experiments:
[1] = test system: P. falciparum strain 3D7-Netherlands; experiment: In vitro IC50, 3H-hypoxanthine incorporation, P. falciparum 3D7; type: cell-based, Plasmodium falciparum; settings: for IC50: Plasmodium falciparum, P. falciparum strain 3D7; for in vitro activity in words: compared with compound 1
[2] = Cytotoxicity HeLa; settings: human, HeLa cells
[3] = test system: K562; experiment: Antiproliferative activity K562; type: cell-based; settings: Homo sapiens, read-out: IC50 [μg/ml] Antiproliferative activity K562
[4] = test system: L929; experiment: Antiproliferative activity L929; type: cell-based; settings: Mus musculus, read-out: IC50 [μg/ml] Antiproliferative activity L929
[5] = test system: Plasmodium berghei GFP MRA-865; experiment: Plasmodium berghei infection in the mouse model (in vivo); settings: ip 3 × 10 mg/kg
[6] = read-out: IC50 [ng/ml] P.f.(3D7)

COc1ccc2c(c1)CCC1C2CC[C@@]2(C)C1CC[C@@H]2NCc1cccc(O)c1 (stereo partly drawn) [Compound 20, 17β-(3-Hydroxyphenyl-methylamino)-3-methoxy-estra-1,3,5(10)-triene]
IC50 ([1]; read-out: IC50 [nM] P.f.(3D7)): 733 nM
IC50 [1, 6]: 287 ng/mL

COc1ccc2c(c1)CCC1C2CC[C@@]2(C)C1CC[C@H]2NCc1c(O)ccc2ccccc12 (stereo partly drawn) [Compound 17, 17α-[(2-Hydroxynaphth-1-yl)-methylamino]-3-methoxy-estra-1,3,5(10)-triene]
IC50 ([1]; read-out: IC50 [nM] P.f.(3D7)): 72.8 nM
IC50 [1, 6]: 32.1 ng/mL

CCN(CC)c1ccc(CN[C@H]2CCC3C4CCc5cc(OC)ccc5C4CC[C@@]32C)c(O)c1 (stereo partly drawn) [Compound 23, 17β-[4-(N,N-Diethylamino)-2-hydroxyphenyl-methylamino]-3-methoxy-estra-1,3,5(10)-triene]
IC50 ([1]; read-out: IC50 [nM] P.f.(3D7)): 716 nM
IC50 [1, 6]: 331 ng/mL

COc1ccc2c(c1)CCC1C2CC[C@@]2(C)C1C[C@@H](NCc1ccccc1O)[C@@H]2O (stereo partly drawn) [Compound 43, 16α-(2-Hydroxyphenyl-methylamino)-17β-hydroxy-3-methoxy-estra-1,3,5(10)-triene]
IC50 [2]: 7.7 µg/mL (≈ 18.9 µM)
IC50 [3]: 1.2 µg/mL (≈ 2.94 µM)
IC50 ([1]; read-out: IC50 [nM] P.f.(3D7)): 58.5 nM
IC50 [1, 6]: 23.9 ng/mL
IC50 [4]: 2 µg/mL (≈ 4.91 µM)

COc1ccc2c(c1)CCC1C2CC[C@@]2(C)C1C[C@H](NCc1ccccc1O)[C@@H]2O (stereo partly drawn) [Compound 42, 16β-(2-Hydroxyphenyl-methylamino)-17β-hydroxy-3-methoxy-estra-1,3,5(10)-triene]
IC50 ([1]; read-out: IC50 [nM] P.f.(3D7)): 227 nM
IC50 [1, 6]: 91.3 ng/mL

COc1ccc2c(c1)CCC1C2CC[C@]2(C)C1C[C@H](NCc1ccccc1O)[C@@H]2O (stereo partly drawn) [Compound 47, 16β-(2-Hydroxyphenyl-methylamino)-17β-hydroxy-3-methoxy-13α-estra-1,3,5(10)-triene]
IC50 ([1]; read-out: IC50 [nM] P.f.(3D7)): 140 nM
IC50 [1, 6]: 57.3 ng/mL

COc1ccc2c(c1)CCC1C2CC[C@@]2(C)C1C[C@@H](NCc1ccccc1O)[C@H]2O (stereo partly drawn) [Compound 45, 16α-(2-Hydroxyphenyl-methylamino)-17α-hydroxy-3-methoxy-estra-1,3,5(10)-triene]
IC50 ([1]; read-out: IC50 [nM] P.f.(3D7)): 101 nM
IC50 [1, 6]: 41 ng/mL

COc1ccc2c(c1)CCC1C2CC[C@]2(C)C1C[C@@H](NCc1ccccc1O)[C@@H]2O (stereo partly drawn) [Compound 48, 16α-(2-Hydroxyphenyl-methylamino)-17β-hydroxy-3-methoxy-13α-estra-1,3,5(10)-triene]
IC50 ([1]; read-out: IC50 [nM] P.f.(3D7)): 83.3 nM
IC50 [1, 6]: 34 ng/mL

COc1ccc2c(c1)CCC1C2CC[C@]2(C)C[C@H](NCc3ccccc3O)CC12 (stereo partly drawn) [Compound 4, 16α-(2-Hydroxyphenyl-methylamino)-3-methoxy-estra-1,3,5(10)-triene]
IC50 [2]: 4.7 µg/mL (≈ 12 µM)
IC50 [3]: 1.3 µg/mL (≈ 3.32 µM)
IC50 ([1]; read-out: IC50 [nM] P.f.(3D7)): 41.5 nM
IC50 [1, 6]: 16.4 ng/mL
in vitro activity in words [1]: comparable activity
IC50 [4]: 1.6 µg/mL (≈ 4.09 µM)

CCN(CC)CCCC(C)Nc1ccnc2cc(Cl)ccc12 (stereo not drawn) [chloroquine, reference compound]
MSD chloroquine ip 3 × 10 mg/kg [5]: 13.6 days

COc1ccc2c(c1)CC[C@@H]1[C@@H]2CC[C@]2(C)[C@H](O)[C@H](N(C)c3cc4ccccc4cc3O)C[C@@H]12 [Compound 36, 16α-[(3-Hydroxy-naphth-2-yl)-methylamino]-17α-hydroxy-3-methoxy-estra-1,3,5(10)-triene]
IC50 ([1]; read-out: IC50 [nM] P.f.(3D7)): 42.1 nM
IC50 [1, 6]: 19.3 ng/mL

COc1ccc2c(c1)CCC1C2CC[C@@]2(C)C1C[C@H](NCc1cc(C(C)(C)C)cc(C(C)(C)C)c1O)[C@H]2O (stereo partly drawn) [Ref 1, 16β-(2-Hydroxy-3,5-di-tert-butylphenyl-methylamino)-17α-hydroxy-3-methoxy-estra-1,3,5(10)-triene, reference compound]
IC50 ([1]; read-out: IC50 [nM] P.f.(3D7)): 1610 nM
IC50 [1, 6]: 836 ng/mL

COc1ccc2c(c1)CCC1C2CC[C@@]2(C)C1C[C@H](NCc1ccccc1O)[C@H]2O (stereo partly drawn) [Compound 44, 16β-(2-Hydroxyphenyl-methylamino)-17α-hydroxy-3-methoxy-estra-1,3,5(10)-triene]
IC50 [2]: 3.4 µg/mL (≈ 8.34 µM)
IC50 [3]: 0.85 µg/mL (≈ 2.09 µM)
IC50 ([1]; read-out: IC50 [nM] P.f.(3D7)): 676 nM
IC50 [1, 6]: 275 ng/mL
IC50 [4]: 2.5 µg/mL (≈ 6.13 µM)

COc1ccc2c(c1)CC[C@@H]1[C@@H]2CC[C@]2(C)[C@@H](O)[C@H](N(C)c3cc4ccccc4cc3O)C[C@@H]12 [Compound 32, 16α-[(3-Hydroxy-naphth-2-yl)-methylamino]-17β-hydroxy-3-methoxy-estra-1,3,5(10)-triene]
IC50 ([1]; read-out: IC50 [nM] P.f.(3D7)): 29.9 nM
IC50 [1, 6]: 13.7 ng/mL

COc1ccc2c(c1)CCC1C2CC[C@@]2(C)C1CC[C@H]2NCc1ccc(O)cc1 (stereo partly drawn) [Compound 7]
IC50 ([1]; read-out: IC50 [nM] P.f.(3D7)): 115 nM
IC50 [1, 6]: 45 ng/mL

COc1ccc2c(c1)CCC1C2CC[C@]2(C)C[C@@H](NCc3ccccc3O)CC12 (stereo partly drawn) [Compound 3, 16β-(2-Hydroxyphenyl-methylamino)-3-methoxy-estra-1,3,5(10)-triene]
IC50 [2]: 4.4 µg/mL (≈ 11.2 µM)
IC50 [3]: 0.7 µg/mL (≈ 1.79 µM)
IC50 ([1]; read-out: IC50 [nM] P.f.(3D7)): 62 nM
IC50 [1, 6]: 24.5 ng/mL
in vitro activity in words [1]: comparable activity
IC50 [4]: 1.9 µg/mL (≈ 4.85 µM)

COc1ccc2c(c1)CCC1C2CC[C@@]2(C)C1CC[C@@H]2NCc1c(O)ccc2ccccc12 (stereo partly drawn) [Compound 19, 17β-[(2-Hydroxynaphth-1-yl)-methylamino]-3-methoxy-estra-1,3,5(10)-triene hydroperchlorate]
IC50 ([1]; read-out: IC50 [nM] P.f.(3D7)): 182 nM
IC50 [1, 6]: 98.6 ng/mL

COc1ccc2c(c1)CCC1C2CC[C@@]2(C)C1CC[C@H]2NCc1ccccc1OC (stereo partly drawn) [Compound 5, 17α-(2-Methoxyphenyl-methylamino)-3-methoxy-estra-1,3,5(10)-triene]
IC50 ([1]; read-out: IC50 [nM] P.f.(3D7)): 879 nM
IC50 [1, 6]: 578 ng/mL

COc1ccc2c(c1)CCC1C2CC[C@@]2(C)C1CC[C@H]2NCc1cccc(O)c1 (stereo partly drawn) [Compound 6, 17α-(3-Hydroxyphenyl-methylamino)-3-methoxy-estra-1,3,5(10)-triene]
IC50 ([1]; read-out: IC50 [nM] P.f.(3D7)): 440 nM
IC50 [1, 6]: 172 ng/mL
